The source made the active and inactive calls.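 The calls were made as follows: active = compounds giving half or more protection of infected cells from virus-caused growth loss, again on retest; inactive = the rest.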 Where a SMILES comes first, the peptide text is derived from it. [ ]: non-standard residue; d: D form. The star is where a group is joined. ξ: configuration not given here. NMeF = CN[C@@H](Cc1ccccc1)C(=O)O; NMeN = CN[C@@H](CC(N)=O)C(=O)O; NMeV = CN[C@H](C(=O)O)C(C)C; ξNMeV = CNC(C(=O)O)C(C)C; Boc = CC(C)(C)OC(=O)*; ξNMeA = CNC(C)C(=O)O; ξV = CC(C)C(N)C(=O)O Where only a bound is given, the exact number is not on record here.

What is called EC50 is the midpoint of the concentration-response curve. Usually IC50 stands for the concentration needed to halve the response being measured. The low end stands for inhibition by little substance, the high end for a need for much substance.

The test system of this assay is CEM cells HIV-1 protection, formazan growth assay. The assay can be described thus: NCI AIDS Antiviral Assay. Particulars: for IC50: measured here: growth of uninfected CEM cells. The essentials:
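Protection of CEM cells against HIV-1 was scored from cell growth (soluble formazan) across five concentrations, with parallel uninfected cells. Lack of protection may reflect toxicity.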

With `Cc1[nH]n(-c2ccccc2)c(=O)c1C=NC(=S)C(N)=S`, the EC50 is above 200 µM and the IC50 was determined as 56.2 µM.

Regarding `CC(=O)OCC1OC(NC(=S)Nn2c(-c3ccccc3)nc3ccccc3c2=O)C(OC(C)=O)C(OC(C)=O)C1OC(C)=O` (stereo unspecified), the EC50 is above 200 µM and the concentration for half-maximal inhibition (IC50) was above 100 µM.

For the compound `CCC1(CC)C(=O)N(C(=O)c2ccc(Cl)cc2)N(C(=O)c2ccccc2Cl)C1=O`, the EC50 is above 200 µM and the IC50 amounted to 45.7 µM.

`NC(CSCCSCC(N)C(=O)O)C(=O)O` (stereo unspecified): the EC50 was above 10 µM and the 50% inhibitory concentration (IC50) was above 10 µM.

In the case of `COC(=O)CNC(=O)CCSc1nnc(COc2ccc(Cl)cc2)n1-c1ccccc1`, the EC50 was above 200 µM and the IC50 is 33.9 µM.

`C(=Nc1ccccc1)c1ccc(C=Nc2ccccc2)cc1`: the EC50 is above 3.63 µM and the IC50 is above 3.63 µM.

As to `Cn1ncc2c(N(N)CCO)nc(-c3ccc([N+](=O)[O-])o3)nc21`, the EC50 is above 200 µM and the IC50 turned out to be 10.7 µM.

With `CCN(CC)C(=S)[S-].CCN(CC)C(=S)[S-].O=C(O)CC([S-])C(=O)O.[Fe+3]` (stereo unspecified), the EC50 was above 100 µM and the IC50 is 38.9 µM.

In the case of `Cc1ccc(C)c(NC(=O)C(=O)C(C2C(C)CC(=O)C2CC(=O)O)[N+](=O)[O-])c1` (stereo unspecified), the EC50 was above 646 µM and the IC50 was above 646 µM.

In the case of `C=C1CC2CC(O)CC(C1)C2` (stereo unspecified), the outcome was inactive.

For `COc1ccc(-c2cc(NC(=O)c3ccccc3)c(=O)oc2C)cc1`, the EC50 is above 200 µM and the IC50 was above 200 µM.

On to `CCOP(=O)(CN1CCNCCN(CP(=O)(OCC)OCC)CC1)OCC`, for which the EC50 was above 100 µM and the IC50 was above 100 µM.

Turning to `O=C(Nc1nc(C23CC4CC(CC(C4)C2)C3)cs1)c1c(O)c2ccccc2[nH]c1=O`, the EC50 is above 200 µM and the IC50 is above 200 µM.

Consider `O=C(CCc1cc(-c2ccccc2)n[nH]1)Nc1ccccc1[N+](=O)[O-]`, for which the result was inactive.

Regarding `O=C1CC2OCC=C3CN4CCC5(C(=O)O)C(N1)C2C3CC45` (stereo unspecified), the EC50 is above 813 µM and the IC50 is above 813 µM.

With `CC1=CC2Cc3ccoc3C(C)(C)C2CC1` (stereo unspecified), the outcome was inactive.

As to `COC(=O)C1=C(C(=O)OC)C23CC4CCC2(C(=O)C1O3)C4(C)C` (stereo unspecified), the EC50 is above 251 µM and the IC50 turned out to be 16.6 µM.

With `CCOC(=O)CC(C)P(c1ccccc1)C(C)CC(=O)OCC` (stereo unspecified), the EC50 was above 741 µM and the IC50 is above 741 µM.

As for `Cc1cc(Cl)ccc1NC(=O)C(=O)C(C(=O)c1ccc2ccccc2c1)C1OC(=O)c2ccccc21` (stereo unspecified), the EC50 was above 52.5 µM and the half-inhibitory concentration (IC50) was determined as 25.1 µM.

For `COC(=O)Nc1cn2ccc(C(Cl)=C(Cl)Cl)cc2n1`, the EC50 is above 30.9 µM and the IC50 was 0.0331 µM.

Regarding `N#CC(NCCc1ccccc1)c1ccc(OCCCCCCCCCCOc2ccc(C(C#N)NCCc3ccccc3)cc2)cc1` (stereo unspecified), the EC50 is above 50.1 µM and the 50% inhibitory concentration (IC50) was found to be 22.9 µM.

For the compound `C[C@H]1[C@H](C)CC[C@]2(C(=O)O)CCC3(COC(=O)/C=C/c4ccc(O)cc4)C(=CCC4[C@@]5(C)CC[C@H](O)C(C)(C)C5CC[C@]43C)[C@H]12` (stereo partly specified), the EC50 was above 11.5 µM and the concentration for half-maximal inhibition (IC50) turned out to be 5.37 µM.

On to `O=C(OC1=C(OC(=O)c2ccc(N=Nc3ccccc3)cc2)c2ccccc21)c1ccc(N=Nc2ccccc2)cc1`, for which the EC50 is above 200 µM and the IC50 is above 200 µM.

As for `O=C(Nc1ccc(Cl)cc1)C(=O)Nc1ccc(Cl)cc1`, the EC50 was above 200 µM and the concentration for half-maximal inhibition (IC50) is above 200 µM.

For `CCOC(=O)c1sc2nc1CSc1sc(=S)sc1SCc1nc(sc1C(=O)OCC)-c1nc(c(C(=O)OCC)s1)CSc1sc(=S)sc1SCc1nc-2sc1C(=O)OCC`, the EC50 is above 200 µM and the IC50 was above 200 µM.

Turning to `O=C(CNC(=O)OCc1ccccc1)NCCCCC(NC(=O)OCc1ccccc1)C(=O)NC(CCCCNC(=O)CNC(=O)OCc1ccccc1)C(=O)OCc1ccccc1` (stereo unspecified), the EC50 was above 100 µM and the IC50 was above 100 µM.

In the case of `O=c1cc(NCC2CCCCC2)[nH]c(=O)[nH]1`, the EC50 is above 200 µM and the IC50 is above 200 µM.

For the compound `OC1CSCCCSCCSCCCSC1`, the EC50 is above 17.4 µM and the 50% inhibitory concentration (IC50) was above 17.4 µM.

`Cc1nnc(N/N=C(/C(=O)C(C#N)c2ccccc2)C(C#N)c2ccccc2)n1N` (stereo unspecified): the EC50 was above 224 µM and the IC50 worked out at 38.9 µM.

As to `O=C(O)C1CSCN1C(=O)c1ccccc1SSc1ccccc1C(=O)N1CSCC1C(=O)O` (stereo unspecified), the EC50 was 85.1 µM and the IC50 is above 100 µM.

For `O=c1c2nn3c(=O)n(-c4ccc(Cl)cc4)c(=O)c3nn2c(=O)n1-c1ccc(Cl)cc1`, the EC50 is above 200 µM and the IC50 was above 200 µM.

As to `Cc1cc(N(CCC#N)CCC#N)ccc1/C(N=Nc1ccccc1)=N\NC(=O)c1ccccc1`, the EC50 was above 200 µM and the IC50 came out at 13.8 µM.

Regarding `COc1cc(C2C3=C(COC3=O)OC(C)(C)Oc3cc4c(cc32)OCO4)cc(OC)c1OC` (stereo unspecified), the EC50 is above 2 µM and the half-inhibitory concentration (IC50) was 0.355 µM.

For the compound `CCOC(=O)/C=C/c1ccc(C#N)cc1`, the result was inactive.

Turning to `CCOC(=N)n1c(=O)n(C2=NCCN2)c2ccccc21`, the EC50 is above 200 µM and the half-maximal inhibitory concentration (IC50) was found to be 123 µM.

`COC(=O)C(C)N(C)C(=O)[C@H](CC(N)=O)N(C)C(=O)[C@@H]1CCCN1C(=O)[C@H](C(C)C)N(C)C(=O)C(C(C)C)N(C)C(=O)[C@H](Cc1ccccc1)N(C)C(=O)C(NC(=O)OC(C)(C)C)C(C)C` (stereo partly specified) (Boc-[ξV][NMeF][ξNMeV][NMeV]P[NMeN][ξNMeA]-OMe): the EC50 was above 100 µM and the IC50 was 17.8 µM.

As for `CC(=O)c1ccc2c(c1)N(CCCN(C)C)c1ccccc1S2`, the EC50 is above 200 µM and the IC50 was determined as 34.7 µM.

As to `Cc1nc2cncnc2n(CCN2CCOCC2)c1=O`, the EC50 was above 200 µM and the concentration for half-maximal inhibition (IC50) was determined as 46.8 µM.

`O=C1[C@H]2ON(c3ccccc3)C(c3ccccc3Cl)[C@H]2C(=O)N1c1ccc(Cc2ccc(N3C(=O)[C@@H]4ON(c5ccccc5)C(c5ccccc5Cl)[C@@H]4C3=O)cc2)cc1` (stereo partly specified): the EC50 is above 8.71 µM and the IC50 was above 8.71 µM.

Consider `CCOC(=O)c1sc2nc(SC)nc3c2c1N=CN3c1ccc(Br)cc1`, for which the outcome was inactive.

Turning to `[N-]=[N+]=C1CNC(=O)NC1=O`, the EC50 is above 200 µM and the IC50 was found to be 30.2 µM.

For `C[n+]1c(-c2ccc(/C=N/NC(=O)c3ccc(C(=O)N/N=C/c4ccc(-c5cn6ccccc6[n+]5C)cc4)cc3)cc2)cn2ccccc21`, the EC50 is above 3.89 µM and the IC50 stood at 0.0224 µM.

For `O=C(NNc1ccccc1)NNc1ccccc1` (tested in a mixture with another compound), the EC50 is above 200 µM and the concentration for half-maximal inhibition (IC50) amounted to 31.6 µM.

In the case of `Cn1ccc(C(=O)NCCN(CCNC(=O)c2ccn(C)c(=O)c2O)CCNC(=O)c2ccn(C)c(=O)c2O)c(O)c1=O`, the EC50 was above 200 µM and the 50% inhibitory concentration (IC50) is above 200 µM.

Turning to `CCOC(=O)c1ccc(N(CC(=O)O)S(=O)(=O)c2ccc(C)cc2)s1`, the EC50 is above 20 µM and the IC50 was above 20 µM.

For the compound `COc1ccc(OC)c2[nH]c(CCc3nc4c(OC)ccc(OC)c4[nH]3)nc12`, the outcome was inactive.

On to `CC[n+]1[b-](C(C)(C)C)n(/N=C(\C)C(C)(C)C)[b-](C(C)(C)C)[n+]1CC`, for which the EC50 is above 200 µM and the 50% inhibitory concentration (IC50) came to 31.6 µM.

On to `NCC1=NCCN1`, for which the EC50 is above 200 µM and the half-inhibitory concentration (IC50) was above 200 µM.

As to `O=C(O)c1cc(I)cc(I)c1O.O=[N+]([O-])C1CCC(O)C2[N-]CCCC21.[Cu+]` (stereo unspecified), the EC50 is above 200 µM and the concentration for half-maximal inhibition (IC50) was 5.62 µM.

`CCOC(=O)C1=C(O)CSC1=Nc1ccccc1`: the result was inactive.

Take `COc1ccc([C@H]2CC(=O)C[C@H](c3ccc(OC)cc3)C23C(=O)c2ccccc2C3=O)cc1`: the EC50 was above 200 µM and the IC50 is 2.63 µM.

Take `Cc1cc(C)[n+]([O-])c(C)c1`: the EC50 was above 1820 µM and the concentration for half-maximal inhibition (IC50) is 977 µM.

`Cc1sc2nc3n(c(=O)c2c1C)N=CN(c1ccccc1)C3`: the EC50 was above 100 µM and the IC50 is above 100 µM.

For `O=NN1C(c2ccccc2)CCCC1c1ccccc1` (stereo unspecified), the EC50 was above 51.3 µM and the IC50 was above 51.3 µM.

Consider `O=S(=O)(O)SCCNCC(O)C(O)CNCCSS(=O)(=O)O` (stereo unspecified), for which the EC50 was above 617 µM and the 50% inhibitory concentration (IC50) turned out to be 120 µM.

For the compound `c1ccc2c(c1)c1ccccc1c1nc3c(nc21)CCCC3`, the EC50 was above 200 µM and the 50% inhibitory concentration (IC50) was above 200 µM.

`C/C(=N\NC(N)=S)c1ccc(/C(C)=N/NC(N)=S)cc1`: the outcome was inactive.

In the case of `C[N+]12CCCCC1CC2` (stereo unspecified), the EC50 was 47.9 µM and the IC50 was determined as 355 µM.

On to `Cc1cn(CC(=O)NCCCO)c(=O)[nH]c1=O`, for which the EC50 was above 200 µM and the half-inhibitory concentration (IC50) was above 200 µM.

In the case of `CC(C)=CC1C(C(=O)N2CCCCCC2)C1(C)C` (stereo unspecified), the EC50 was above 200 µM and the 50% inhibitory concentration (IC50) was above 200 µM.

Turning to `COC(=O)C(/C(=N/N)C(=O)Nc1cccc(O)c1)c1nc2ccccc2[nH]c1=O` (stereo unspecified), the EC50 is above 34.7 µM and the concentration for half-maximal inhibition (IC50) was above 34.7 µM.

Take `O=C(CC(=O)c1cccc2ccccc12)C(=O)Nc1nccs1`: the EC50 is above 30.9 µM and the concentration for half-maximal inhibition (IC50) is above 30.9 µM.

Take `CC12CCC(CC1=O)C2(C)CCC(N)=O` (stereo unspecified): the EC50 was above 200 µM and the IC50 was above 200 µM.

Take `CN1C(=O)C2CC(=O)N(Cc3ccccc3)C(=O)C2C1=O` (stereo unspecified): the EC50 is above 288 µM and the IC50 is above 288 µM.

In the case of `COc1cc(=O)cc(Cl)c(Cl)c1Cl`, the outcome was inactive.

Turning to `CC(=O)Oc1cccc2c1C(=O)C1CC(O)C(O)C3OC(C)(C)OC2(C)C13` (stereo unspecified), the EC50 was above 468 µM and the IC50 is above 468 µM.

Regarding `CN(C)C1COC2Cc3ccccc3C1O2` (stereo unspecified), the EC50 was above 200 µM and the IC50 is above 200 µM.

As to `NC(=O)CCC(NS(=O)(=O)c1ccc(NC(=O)c2ccccc2)cc1)C(=O)O` (stereo unspecified), the EC50 is above 617 µM and the IC50 is above 617 µM.

Consider `NC1=NN(c2ccccc2)C(=O)C1C(=O)CCC(=O)Nc1cccc(Cl)c1` (stereo unspecified), for which the EC50 is above 339 µM and the half-maximal inhibitory concentration (IC50) was above 339 µM.

Consider `CCC1C(=O)OCc2ccccc21` (stereo unspecified), for which the EC50 was above 200 µM and the IC50 is above 200 µM.

For the origin of these results see PubChem BioAssay AID179 (DTP/NCI, 2004).
